Results from patent US8829007B2 (priority 2009, dated 2014).

tested on: influenza A virus (A/PR/8/34); experiment: microbe, parasite or virus in culture; type: cell-based; details: Influenza A virus, PR/8, MDCK, MDCK cells infected with A/PR/8/34, cell protection (CPE); read-out: IC50 (mean all)

`O=C(Cn1ccnc1)N1CCC[C@@H](CNc2nc(-c3c[nH]c4ncc(Cl)cc34)ncc2F)C1` [Compound 50, (S)-1-(3-((2-(5-chloro-1H-pyrrolo[2,3-b]pyridin-3-yl)-5-fluoropyrimidin-4-ylamino)methyl)piperidin-1-yl)-2-(1H-imidazol-1-yl)ethanone] and `O=C(Cn1cnnn1)N1CCC[C@@H](CNc2nc(-c3c[nH]c4ncc(Cl)cc34)ncc2F)C1` [Compound 48, (S)-1-(3-((2-(5-chloro-1H-pyrrolo[2,3-b]pyridin-3-yl)-5-fluoropyrimidin-4-ylamino)methyl)piperidin-1-yl)-2-(1H-tetrazol-1-yl)ethanone] cannot be ordered by IC50: greater than 20 µM for the first, greater than 20 µM for the second.

First: COc1ccccc1C(=O)N1CCC[C@H](CNc2nc(-c3c[nH]c4ncccc34)ncc2F)C1 [Compound 272, (R)-(3-((5-fluoro-2-(1H-pyrrolo[2,3-b]pyridin-3-yl)pyrimidin-4-ylamino)methyl)piperidin-1-yl)(2-methoxyphenyl)methanone]
Second: CCCC(=O)N1CCC[C@H](CNc2nc(-c3c[nH]c4ncccc34)ncc2F)C1 [Compound 270, (R)-1-(3-((5-fluoro-2-(1H-pyrrolo[2,3-b]pyridin-3-yl)pyrimidin-4-ylamino)methyl)piperidin-1-yl)butan-1-one]
The IC50 of the first is higher: greater than 20 µM for the first, 5 to 20 µM for the second.

`O=C(O)CCCC(=O)N1CCC[C@H](CNc2nc(-c3c[nH]c4ncc(Cl)cc34)ncc2F)C1` [Compound 53, (R)-5-(3-((2-(5-chloro-1H-pyrrolo[2,3-b]pyridin-3-yl)-5-fluoropyrimidin-4-ylamino)methyl)piperidin-1-yl)-5-oxopentanoic acid] and `CNC(=O)N1CCC[C@@H](CNc2nc(-c3c[nH]c4ncc(Cl)cc34)ncc2F)C1` [Compound 29, (S)-3-((2-(5-chloro-1H-pyrrolo[2,3-b]pyridin-3-yl)-5-fluoropyrimidin-4-ylamino)methyl)-N-methylpiperidine-1-carboxamide] fall in the same range of IC50: 5 to 20 µM for the first, 5 to 20 µM for the second.

Compared with `O=C(CCCCl)N1CCCC[C@@H]1CNc1nc(-c2c[nH]c3ncc(Cl)cc23)ncc1F` [Compound 278, (R)-4-chloro-1-(2-((2-(5-chloro-1H-pyrrolo[2,3-b]pyridin-3-yl)-5-fluoropyrimidin-4-ylamino)methyl)piperidin-1-yl)butan-1-one], `O=C(c1ccccc1)N1CCCC[C@H]1CNc1nc(-c2c[nH]c3ncccc23)ncc1F` [Compound 259, (S)-(2-((5-fluoro-2-(1H-pyrrolo[2,3-b]pyridin-3-yl)pyrimidin-4-ylamino)methyl)piperidin-1-yl)(phenyl)methanone] is lower in IC50: greater than 20 µM for the first, 5 to 20 µM for the second. The second is the more potent here.

same assay, conditions: Influenza A virus, PR/8, MDCK, MDCK cells infected with A/PR/8/34; survival of infected cells; class symbols; read-out: IC50 (mean all)

First: CCC(=O)N1CCOCC1CNc1nc(-c2c[nH]c3ncc(Cl)cc23)ncc1F (centres unmarked) [Compound 516, 1-(3-((2-(5-chloro-1H-pyrrolo[2,3-b]pyridin-3-yl)-5-fluoropyrimidin-4-ylamino)methyl)morpholino)propan-1-one]
Second: CCN(CC)C(=O)[C@@H]1CCCC[C@@H]1Nc1nc(-c2c[nH]c3ncc(Cl)cc23)ncc1F [Compound 518, (1R,2S)-2-(2-(5-chloro-1H-pyrrolo[2,3-b]pyridin-3-yl)-5-fluoropyrimidin-4-ylamino)-N,N-diethylcyclohexanecarboxamide]
The IC50 of the first is lower: 5 to 20 µM for the first, greater than 20 µM for the second. The first is the more potent here.

Work on `CCN(CC)C(=O)[C@H]1CCCC[C@@H]1Nc1nc(-c2c[nH]c3ncc(Cl)cc23)ncc1F` [Compound 520] yielded an IC50 greater than 20 µM.

same assay, conditions: Influenza A virus, PR/8, MDCK, mean all; A/PR/8/34 infected MDCK cells, CPE assay; read-out: IC50

Compared with `COCC(=O)N1CC[C@H](Nc2nc(-c3c[nH]c4ncc(Cl)cc34)ncc2F)C1` [Compound 481], `CC(C)OC(=O)N1CC[C@H](Nc2nc(-c3c[nH]c4ncc(Cl)cc34)ncc2F)C1` [Compound 477] is higher in IC50: 5 to 20 µM for the first, greater than 20 µM for the second. The first is the more potent here.

`CCCC(=O)N[C@@H]1CCCC[C@@H]1Nc1nc(-c2c[nH]c3ncccc23)ncc1F` (relative stereo) [Compound 342, N-[cis-2-[[5-fluoro-2-(1H-pyrrolo[2,3-b]pyridin-3-yl)pyrimidin-4-yl]amino]cyclohexyl]butanamide] and `O=C(N[C@@H]1CCCC[C@@H]1Nc1nc(-c2c[nH]c3ncccc23)ncc1F)C1CCCC1` (relative stereo) [Compound 343, N-[cis-2-[[5-fluoro-2-(1H-pyrrolo[2,3-b]pyridin-3-yl)pyrimidin-4-yl]amino]cyclohexyl]cyclopentanecarboxamide] cannot be ordered by IC50: greater than 20 µM for the first, greater than 20 µM for the second.

`CCCNC(=O)N[C@@H]1CCCC[C@@H]1Nc1nc(-c2c[nH]c3ncc(Cl)cc23)ncc1F` (relative stereo) [Compound 339, 1-[cis-2-[[2-(5-chloro-1H-pyrrolo[2,3-b]pyridin-3-yl)-5-fluoro-pyrimidin-4-yl]amino]cyclohexyl]-3-propyl-urea] and `CCC(=O)N[C@@H]1CCCC[C@@H]1Nc1nc(-c2c[nH]c3ncc(Cl)cc23)ncc1F` (relative stereo) [Compound 333, N-[cis-2-[[2-(5-chloro-1H-pyrrolo[2,3-b]pyridin-3-yl)-5-fluoro-pyrimidin-4-yl]amino]cyclohexyl]propanamide] fall in the same range of IC50: 5 to 20 µM for the first, 5 to 20 µM for the second.

`CN(C)C(=O)N[C@H]1CCCC[C@@H]1Nc1nc(-c2c[nH]c3ncc(Cl)cc23)ncc1F` [Compound 427, 3-[(1S,2S)-2-[[2-(5-chloro-1H-pyrrolo[2,3-b]pyridin-3-yl)-5-fluoro-pyrimidin-4-yl]amino]cyclohexyl]-1,1-dimethyl-urea] and `COC(=O)N[C@@H]1CCCC[C@@H]1Nc1nc(-c2c[nH]c3ncc(Cl)cc23)ncc1F` (relative stereo) [Compound 432, Methyl N-[cis-2-[[2-(5-chloro-1H-pyrrolo[2,3-b]pyridin-3-yl)-5-fluoro-pyrimidin-4-yl]amino]cyclohexyl]carbamate] cannot be ordered by IC50: greater than 20 µM for the first, greater than 20 µM for the second.

`O=C(NC1CCCCC1Nc1nc(-c2c[nH]c3ncc(Cl)cc23)ncc1F)C1CCCC1` (stereo not drawn) [Compound 364, N-[(trans-2-[[2-(5-chloro-1H-pyrrolo[2,3-b]pyridin-3-yl)-5-fluoro-pyrimidin-4-yl]amino]cyclohexyl]cyclopentanecarboxamide] and `O=C(N[C@@H]1CCCC[C@@H]1Nc1nc(-c2c[nH]c3ncc(Cl)cc23)ncc1F)c1ccccc1` (relative stereo) [Compound 336, N-[cis-2-[[2-(5-chloro-1H-pyrrolo[2,3-b]pyridin-3-yl)-5-fluoro-pyrimidin-4-yl]amino]cyclohexyl]benzamide] cannot be ordered by IC50: greater than 20 µM for the first, greater than 20 µM for the second.

Compared with `CCCCS(=O)(=O)N1CC[C@H](Nc2nc(-c3c[nH]c4ncc(Cl)cc34)ncc2F)C1` [Compound 402, (S)—N-(1-(butylsulfonyl)pyrrolidin-3-yl)-2-(5-chloro-1H-pyrrolo[2,3-b]pyridin-3-yl)-5-fluoropyrimidin-4-amine], `O=S(=O)(CC1CCCC1)N1CC[C@H](Nc2nc(-c3c[nH]c4ncc(Cl)cc34)ncc2F)C1` [Compound 479, (S)-2-(5-chloro-1H-pyrrolo[2,3-b]pyridin-3-yl)-N-(1-(cyclopentylmethylsulfonyl)pyrrolidin-3-yl)-5-fluoropyrimidin-4-amine] is higher in IC50: 5 to 20 µM for the first, greater than 20 µM for the second.

`CCCS(=O)(=O)N[C@@H]1CCCC[C@H]1Nc1nc(-c2c[nH]c3ncc(Cl)cc23)ncc1F` [Compound 354, N-[(1R,2R)-2-[[2-(5-chloro-1H-pyrrolo[2,3-b]pyridin-3-yl)-5-fluoro-pyrimidin-4-yl]amino]cyclohexyl]propane-1-sulfonamide] and `O=C(N[C@@H]1CCCC[C@H]1Nc1nc(-c2c[nH]c3ncc(Cl)cc23)ncc1F)c1ccccc1` (relative stereo) [Compound 365, N-[trans-2-[[2-(5-chloro-1H-pyrrolo[2,3-b]pyridin-3-yl)-5-fluoro-pyrimidin-4-yl]amino]cyclohexyl]benzamide] cannot be ordered by IC50: greater than 20 µM for the first, greater than 20 µM for the second.

Going from `CCCCS(=O)(=O)N1CCCC[C@@H]1CNc1nc(-c2c[nH]c3ncc(Cl)cc23)ncc1F` [Compound 329, (R)—N-((1-(butylsulfonyl)piperidin-2-yl)methyl)-2-(5-chloro-1H-pyrrolo[2,3-b]pyridin-3-yl)-5-fluoropyrimidin-4-amine] to `O=S(=O)(C1CC1)N1CCCC[C@H]1CNc1nc(-c2c[nH]c3ncc(Cl)cc23)ncc1F` [Compound 386, (S)-2-(5-chloro-1H-pyrrolo[2,3-b]pyridin-3-yl)-5-fluoro-N-((1-(cyclopropylsulfonyl)-piperidin-2-yl)methyl)pyrimidin-4-amine], the IC50 falls from greater than 20 µM to less than 5 µM. The second is the more potent here.

Compared with `CNC(=O)N1CCCC[C@@H]1CNc1nc(-c2c[nH]c3ncccc23)ncc1F` [Compound 374, (R)-2-((5-fluoro-2-(1H-pyrrolo[2,3-b]pyridin-3-yl)pyrimidin-4-ylamino)methyl)-N-methylpiperidine-1-carboxamide], `CCC(=O)N1CCOC(CNc2nc(-c3c[nH]c4ncc(Cl)cc34)ncc2F)C1` (centres unmarked) [Compound 449, 1-(2-((2-(5-chloro-1H-pyrrolo[2,3-b]pyridin-3-yl)-5-fluoropyrimidin-4-ylamino)methyl)morpholino)propan-1-one] is lower in IC50: greater than 20 µM for the first, 5 to 20 µM for the second.

Work on `CC1(C(=O)N2CC[C@H](Nc3nc(-c4c[nH]c5ncc(Cl)cc45)ncc3F)C2)COC1` [Compound 482] yielded an IC50 of less than 5 µM.

same assay, conditions: Influenza A virus, PR/8, MDCK; read-out: IC50 (mean all)

`CCC(=O)N1CCCC(CNc2nc(-c3c[nH]c4ncccc34)ncc2F)C1` (centres unmarked) [Compound 269] gave an IC50 of 5 to 20 µM.

same assay, conditions: MDCK cells infected with A/PR/8/34; survival of infected cells; class symbols; read-out: IC50 (mean all)

`CS(=O)(=O)N1CC(Nc2nc(-c3c[nH]c4ncc(Cl)cc34)ncc2F)C1` [Compound 508] showed an IC50 greater than 20 µM.

same assay, conditions: mean all; A/PR/8/34 infected MDCK cells, CPE assay; read-out: IC50

`O=C(OC1CCOC1)N1CCC(Nc2nc(-c3c[nH]c4ncc(Cl)cc34)ncc2F)CC1` (centres unmarked) [Compound 420] and `O=C(C1CCOC1)N1CCC(Nc2nc(-c3c[nH]c4ncc(Cl)cc34)ncc2F)C1` (centres unmarked) [Compound 467] cannot be ordered by IC50: greater than 20 µM for the first, greater than 20 µM for the second.

First: O=S(=O)(CC(F)(F)F)N1CCCC[C@@H]1CNc1nc(-c2c[nH]c3ncc(Cl)cc23)ncc1F [Compound 387]
Second: CC(C)S(=O)(=O)N1CCC(Nc2nc(-c3c[nH]c4ncc(Cl)cc34)ncc2F)C1 (centres unmarked) [Compound 408]
The IC50 of the first is lower: 5 to 20 µM for the first, greater than 20 µM for the second.

`CC(=O)N1CCC(Nc2nc(-c3c[nH]c4ncc(Cl)cc34)ncc2F)C1` (centres unmarked) [Compound 471] gave an IC50 of less than 5 µM.

same assay, conditions: read-out: IC50

`O=C(C1CCOC1)N1CC[C@H](Nc2nc(-c3c[nH]c4ncc(Cl)cc34)ncc2F)C1` (some centres unmarked) [Compound 478] gave an IC50 of 5 to 20 µM.
